Earlier results on four compounds are cited in PubChem BioAssay AID1259409 (Chemical Carcinogenesis Research Information System (CCRIS), 2018).

For this data set, the system named is rodent chemically induced tumor inhibition, incidence and multiplicity. Put plainly: CCRIS tumor inhibitor studies.

As for `C/C(=C\c1ccc(C(=O)O)cc1)c1ccc2c(c1)C(C)(C)CCS2`, the “tumour outcome (control, treated, inhibition, significance)” value (Carcinogen: 7,12-DIMETHYLBENZ[A]ANTHRACENE, 57-97-6, Dose [Inhibitor]: 1.7 NMOL IN 0.2 ML ACETONE 1 HR PRIOR TO EACH PROMOTER DOSE FOR 12 WK (STUDY DURATION: 14 WK), Route [Inhibitor]: DERMAL, Species: MOUSE, Strain/Sex: SENCAR/FEMALE, Target Tissue: Type of Lesion: SKIN: PAPILLOMA, Dose [Carcinogen]: 200 NMOL IN 0.2 ML ACETONE ONCE, Promoter: 12-O-TETRADECANOYLPHORBOL-13-ACETATE, 16561-29-8) is reported as 100%, 100%, 0%, not calculated; the “tumour outcome (control, treated, inhibition, significance)” value (Carcinogen: 7,12-DIMETHYLBENZ[A]ANTHRACENE, 57-97-6, Dose [Inhibitor]: 1.7 NMOL IN 0.2 ML ACETONE 1 HR PRIOR TO EACH PROMOTER DOSE FOR 20 WK (STUDY DURATION: 22 WK), Route [Inhibitor]: DERMAL, Species: MOUSE, Strain/Sex: CD-1/FEMALE, Target Tissue: Type of Lesion: SKIN: PAPILLOMA, Dose [Carcinogen]: 200 NMOL IN 0.2 ML ACETONE ONCE, Promoter: 12-O-TETRADECANOYLPHORBOL-13-ACETATE, 16561-29-8) is 94%, 93%, 1%, not calculated; the “tumour outcome (control, treated, inhibition, significance)” value (Carcinogen: 7,12-DIMETHYLBENZ[A]ANTHRACENE, 57-97-6, Dose [Inhibitor]: 17 NMOL IN 0.2 ML ACETONE 1 HR PRIOR TO EACH PROMOTER DOSE FOR 12 WK (STUDY DURATION: 14 WK), Route [Inhibitor]: DERMAL, Species: MOUSE, Strain/Sex: SENCAR/FEMALE, Target Tissue: Type of Lesion: SKIN: PAPILLOMA, Dose [Carcinogen]: 200 NMOL IN 0.2 ML ACETONE ONCE, Promoter: 12-O-TETRADECANOYLPHORBOL-13-ACETATE, 16561-29-8) was 100%, 90%, 10%, not calculated; the “tumour outcome (control, treated, inhibition, significance)” value (Carcinogen: 7,12-DIMETHYLBENZ[A]ANTHRACENE, 57-97-6, Dose [Inhibitor]: 17 NMOL IN 0.2 ML ACETONE 1 HR PRIOR TO EACH PROMOTER DOSE FOR 20 WK (STUDY DURATION: 22 WK), Route [Inhibitor]: DERMAL, Species: MOUSE, Strain/Sex: CD-1/FEMALE, Target Tissue: Type of Lesion: SKIN: PAPILLOMA, Dose [Carcinogen]: 200 NMOL IN 0.2 ML ACETONE ONCE, Promoter: 12-O-TETRADECANOYLPHORBOL-13-ACETATE, 16561-29-8) is given as 94%, 38%, 60%, not calculated; the “tumour outcome (control, treated, inhibition, significance)” value (Carcinogen: 7,12-DIMETHYLBENZ[A]ANTHRACENE, 57-97-6, Dose [Inhibitor]: 170 NMOL IN 0.2 ML ACETONE 1 HR PRIOR TO EACH PROMOTER DOSE FOR 12 WK (STUDY DURATION: 14 WK), Route [Inhibitor]: DERMAL, Species: MOUSE, Strain/Sex: SENCAR/FEMALE, Target Tissue: Type of Lesion: SKIN: PAPILLOMA, Dose [Carcinogen]: 200 NMOL IN 0.2 ML ACETONE ONCE, Promoter: 12-O-TETRADECANOYLPHORBOL-13-ACETATE, 16561-29-8) is 100%, 38%, 62%, not calculated; the “tumour outcome (control, treated, inhibition, significance)” value (Carcinogen: 7,12-DIMETHYLBENZ[A]ANTHRACENE, 57-97-6, Dose [Inhibitor]: 170 NMOL IN 0.2 ML ACETONE 1 HR PRIOR TO EACH PROMOTER DOSE FOR 20 WK (STUDY DURATION: 22 WK), Route [Inhibitor]: DERMAL, Species: MOUSE, Strain/Sex: CD-1/FEMALE, Target Tissue: Type of Lesion: SKIN: PAPILLOMA, Dose [Carcinogen]: 200 NMOL IN 0.2 ML ACETONE ONCE, Promoter: 12-O-TETRADECANOYLPHORBOL-13-ACETATE, 16561-29-8) was 94%, 24%, 74%, not calculated.
On to `S=C=S`, for which the “tumour outcome (control, treated, inhibition, significance)” value (Carcinogen: 1,2-DIMETHYLHYDRAZINE, 540-73-8, Dose [Inhibitor]: 0, 250 MG/KG BW IN CORN OIL ADMINISTERED 24 AND 2 HR PRIOR TO AND 24 HR POST EACH CARCINOGEN DOSE (STUDY DURATION: 8 MO), Route [Inhibitor]: GAVAGE, Species: RAT, Strain/Sex: BD6/MALE, Target Tissue: Type of Lesion: INTESTINE: TUMOR, Dose [Carcinogen]: 20 MG/KG BW 1/WK FOR 20 WK, Promoter: NONE USED) is 100%, 0%, 100%, not calculated.
On to `CC(C)(C)NC(=O)[C@H]1CC[C@H]2[C@@H]3CC[C@H]4NC(=O)C=C[C@]4(C)[C@H]3CC[C@]12C`, for which the “tumour outcome (control, treated, inhibition, significance)” value (Carcinogen: N-BUTYL-N-(4-HYDROXYBUTYL)NITROSAMINE, 3817-11-6, Dose [Inhibitor]: 0, 2 MG/KG 2/WK FOR 11 WK BEGINNING POST CARCINOGEN TREATMENT (STUDY DURATION: 21WK), Route [Inhibitor]: ORAL, Species: RAT, Strain/Sex: WISTAR/MALE, Target Tissue: Type of Lesion: URINARY BLADDER: CARCINOMA, Dose [Carcinogen]: 0.05% IN DRINKING WATER FOR 10 WK, Promoter: NONE USED) is 15/17 (88%), 12/17 (71%), 19%, not significant; the “tumour outcome (control, treated, inhibition, significance)” value (Carcinogen: N-BUTYL-N-(4-HYDROXYBUTYL)NITROSAMINE, 3817-11-6, Dose [Inhibitor]: 0, 2 MG/KG 2/WK FOR 13 WK BEGINNING POST CARCINOGEN TREATMENT (STUDY DURATION: 20WK), Route [Inhibitor]: ORAL, Species: RAT, Strain/Sex: WISTAR/MALE, Target Tissue: Type of Lesion: URINARY BLADDER: CARCINOMA, Dose [Carcinogen]: 0.05% IN DRINKING WATER FOR 7 WK, Promoter: NONE USED) is recorded as 25/39 (64%), 9/20 (45%), 30%, not significant; the “tumour outcome (control, treated, inhibition, significance)” value (Carcinogen: N-BUTYL-N-(4-HYDROXYBUTYL)NITROSAMINE, 3817-11-6, Dose [Inhibitor]: 0, 4 MG/KG 2/WK FOR 13 WK BEGINNING POST CARCINOGEN TREATMENT (STUDY DURATION: 20 WK), Route [Inhibitor]: ORAL, Species: RAT, Strain/Sex: WISTAR/MALE, Target Tissue: Type of Lesion: URINARY BLADDER: CARCINOMA, Dose [Carcinogen]: 0.05% IN DRINKING WATER FOR 7 WK, Promoter: NONE USED) is listed as 25/39 (64%), 9/20 (45%), 30%, not significant; the “tumour outcome (control, treated, inhibition, significance)” value (Carcinogen: N-BUTYL-N-(4-HYDROXYBUTYL)NITROSAMINE, 3817-11-6, Dose [Inhibitor]: 0, 8 MG/KG 2/WK FOR 13 WK BEGINNING POST CARCINOGEN TREATMENT (STUDY DURATION: 20 WK), Route [Inhibitor]: ORAL, Species: RAT, Strain/Sex: WISTAR/MALE, Target Tissue: Type of Lesion: URINARY BLADDER : CARCINOMA, Dose [Carcinogen]: 0.05% IN DRINKING WATER FOR 7 WK, Promoter: NONE USED) is 25/39 (64%), 8/20 (40%), 38%, not significant; the “tumour outcome (control, treated, inhibition, significance)” value (Carcinogen: N-METHYL-N-NITROSOUREA, 684-93-5, Dose [Inhibitor]: 0.09 MG/200 G BW/D FOR 2 MO BEGINNING 9.5 MO POST-CARCINOGEN DOSE (STUDY DURATION: 11.5 MO), Route [Inhibitor]: GAVAGE, Species: RAT, Strain/Sex: WISTAR/MALE, Target Tissue: Type of Lesion: PROSTATE: ADENOCARCINOMA, Dose [Carcinogen]: 35 MG/KG BW ONCE AT INITIATION OF STUDY, Promoter: TESTOSTERONE PROPIONATE, 57-85-2) is reported as 9/14 (64%), 1/10 (10%), 84%, not determined.
For the compound `CC(C)(Sc1cc(C(C)(C)C)c(O)c(C(C)(C)C)c1)Sc1cc(C(C)(C)C)c(O)c(C(C)(C)C)c1`, the “tumour outcome (control, treated, inhibition, significance)” value is reported as 15/15 (100%), 13/13 (100%), 0%, not significant (Carcinogen: BENZO[A]PYRENE, 50-32-8, Dose [Inhibitor]: 0, 0.06% IN DIET FOR DURATION OF STUDY BEGINNING 2 WK PRIOR TO CARCINOGEN DOSE (STUDY DURATION: 25 WK), Route [Inhibitor]: ORAL, Species: MOUSE, Strain/Sex: STRAIN-A/FEMALE, Target Tissue: Type of Lesion: FORESTOMACH: TUMOR, Dose [Carcinogen]: 1 MG IN 0.2 ML OLIVE OIL 2/WK FOR 4 WK, Promoter: NONE USED); 15/15 (100%), 13/13 (100%), 0%, not significant (Carcinogen: BENZO[A]PYRENE, 50-32-8, Dose [Inhibitor]: 0, 0.06% IN DIET FOR DURATION OF STUDY BEGINNING 2 WK PRIOR TO CARCINOGEN DOSE (STUDY DURATION: 25 WK), Route [Inhibitor]: ORAL, Species: MOUSE, Strain/Sex: STRAIN-A/FEMALE, Target Tissue: Type of Lesion: LUNG: ADENOMA, Dose [Carcinogen]: 1 MG IN 0.2 ML OLIVE OIL 2/WK FOR 4 WK, Promoter: NONE USED); 15/15 (100%), 15/15 (100%), 0%, not significant (Carcinogen: BENZO[A]PYRENE, 50-32-8, Dose [Inhibitor]: 0, 1% IN DIET FOR DURATION OF STUDY BEGINNING 2 WK PRIOR TO CARCINOGEN DOSE (STUDY DURATION: 25 WK), Route [Inhibitor]: ORAL, Species: MOUSE, Strain/Sex: STRAIN-A/FEMALE, Target Tissue: Type of Lesion: FORESTOMACH: TUMOR, Dose [Carcinogen]: 1 MG IN 0.2 ML OLIVE OIL 2/WK FOR 4 WK, Promoter: NONE USED); 15/15 (100%), 15/15 (100%), 0%, not significant (Carcinogen: BENZO[A]PYRENE, 50-32-8, Dose [Inhibitor]: 0, 1% IN DIET FOR DURATION OF STUDY BEGINNING 2 WK PRIOR TO CARCINOGEN DOSE (STUDY DURATION: 25 WK), Route [Inhibitor]: ORAL, Species: MOUSE, Strain/Sex: STRAIN-A/FEMALE, Target Tissue: Type of Lesion: LUNG: ADENOMA, Dose [Carcinogen]: 1 MG IN 0.2 ML OLIVE OIL 2/WK FOR 4 WK, Promoter: NONE USED). Further, the outcome (Carcinogen: N,N-diethylnitrosamine, 55-18-5, Dose [Inhibitor]: 1% in diet through study, dose and study duration 24 wk, Route [Inhibitor]: Oral, Species: Mouse, Strain/Sex: ddy/Male, Target Tissue: Type of Lesion: Kidney, Dose [Carcinogen]: 100 mg/kg bw, Promoter: Ferric nitrilotriacetate, 16448-54-7) is reported as 14/20 (70%), 4/20 (20%).
